Measured values as given in ChEMBL document CHEMBL4420076, “Amylin and calcitonin receptor agonist” (2017).
Numbered stars: 1 amine (or outer) side, 2 acyl side, 3 side chain; on linkers, the order of the positions; unused ones are H or OH. Side chains are listed from the residue outwards. Peptide text beside a SMILES is read from it. * marks the point of attachment. C20 diacid = O=C(O)CCCCCCCCCCCCCCCCCCC(=O)*; γGlu = O=C(O)[C@H](CCC(=O)[*:2])N[*:1]

Assays:
[1] = molecular target: T1, Amylin receptor AMY3; CALCR/RAMP3 (Homo sapiens, UniProt O60896+P30988); experiment: Agonist activity at human amylin receptor expressed in BHK570 cells co-expressing RAMP3 assessed as increase in intracellular cAMP concentration incubated for 3 hrs in absence of albumin by CRE luciferase reporter gene assay; type: functional, cell-based
T1 sequence (P30988 whole entry): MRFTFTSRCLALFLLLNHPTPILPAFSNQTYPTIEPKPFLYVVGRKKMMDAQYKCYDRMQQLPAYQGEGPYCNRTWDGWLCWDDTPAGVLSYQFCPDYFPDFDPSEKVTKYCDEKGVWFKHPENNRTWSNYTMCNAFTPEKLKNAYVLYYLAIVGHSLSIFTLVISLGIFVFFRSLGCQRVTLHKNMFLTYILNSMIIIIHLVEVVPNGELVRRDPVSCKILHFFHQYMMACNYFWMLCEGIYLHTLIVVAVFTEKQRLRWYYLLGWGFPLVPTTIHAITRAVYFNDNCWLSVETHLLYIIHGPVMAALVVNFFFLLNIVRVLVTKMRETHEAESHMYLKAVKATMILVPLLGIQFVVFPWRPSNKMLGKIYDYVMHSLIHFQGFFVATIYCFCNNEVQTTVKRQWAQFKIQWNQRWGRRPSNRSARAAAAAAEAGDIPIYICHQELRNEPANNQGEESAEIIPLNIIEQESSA
T1 sequence (O60896 whole entry): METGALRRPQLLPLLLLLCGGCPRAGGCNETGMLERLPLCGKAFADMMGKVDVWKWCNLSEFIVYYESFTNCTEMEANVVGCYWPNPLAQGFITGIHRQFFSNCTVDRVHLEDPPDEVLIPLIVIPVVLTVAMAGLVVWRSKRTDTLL

Calcitonin receptor [2] = molecular target: T2, Calcitonin receptor (Homo sapiens, UniProt P30988); experiment: Agonist activity at human calcitonin receptor expressed in BHK570 cells assessed as increase in intracellular cAMP concentration incubated for 3 hrs in absence of albumin by CRE luciferase reporter gene assay; type: functional, cell-based
T2 sequence (P30988 whole entry): T1 sequence (P30988 whole entry)

[3] = molecular target: T1, Amylin receptor AMY3; CALCR/RAMP3; experiment: Agonist activity at human amylin receptor expressed in BHK570 cells co-expressing RAMP3 assessed as increase in intracellular cAMP concentration incubated for 3 hrs in presence of 10% FBS by CRE luciferase reporter gene assay; type: functional, cell-based
Calcitonin receptor [4] = molecular target: T2, Calcitonin receptor; experiment: Agonist activity at human calcitonin receptor expressed in BHK570 cells assessed as increase in intracellular cAMP concentration incubated for 3 hrs in presence of 10% FBS by CRE luciferase reporter gene assay; type: functional, cell-based
[5] = Solubility in 100 mM glycylglycine buffer at pH 3.0 incubated for 18 hrs by UPLC analysis; type: physicochemical
[6] = Solubility in 100 mM glycylglycine buffer at pH 4.0 incubated for 18 hrs by UPLC analysis; type: physicochemical
[7] = Solubility in 100 mM bistrispropane buffer at pH 6.0 incubated for 18 hrs by UPLC analysis; type: physicochemical
[8] = Solubility in 100 mM glycylglycine buffer at pH 5.0 incubated for 18 hrs by UPLC analysis; type: physicochemical
[9] = Solubility in 100 mM bistrispropane buffer at pH 6.5 incubated for 18 hrs by UPLC analysis; type: physicochemical
[10] = Solubility in 100 mM bistrispropane buffer at pH 7.0 incubated for 18 hrs by UPLC analysis; type: physicochemical
[11] = Solubility in 100 mM bistrispropane buffer at pH 7.5 incubated for 18 hrs by UPLC analysis; type: physicochemical
[12] = Solubility in 100 mM bistrispropane buffer at pH 8.0 incubated for 18 hrs by UPLC analysis; type: physicochemical
Calcitonin receptor [13] = molecular target: T2, Calcitonin receptor; experiment: Displacement of [125I]-labeled human calcitonin from human calcitonin receptor expressed in BHK tkts13 cell membranes incubated for 1 hr by scintillation proximity assay
[14] = molecular target: T3, Amylin receptor AMY3; CALCR/RAMP3 (Rattus norvegicus, UniProt P32214+Q9JJ73); experiment: Displacement of [125I]-labeled rat amylin from rat amylin receptor expressed in BHK tkts13 cell membranes co-expressing RAMP3 incubated for 120 mins by scintillation proximity assay
T3 sequence (P32214 whole entry): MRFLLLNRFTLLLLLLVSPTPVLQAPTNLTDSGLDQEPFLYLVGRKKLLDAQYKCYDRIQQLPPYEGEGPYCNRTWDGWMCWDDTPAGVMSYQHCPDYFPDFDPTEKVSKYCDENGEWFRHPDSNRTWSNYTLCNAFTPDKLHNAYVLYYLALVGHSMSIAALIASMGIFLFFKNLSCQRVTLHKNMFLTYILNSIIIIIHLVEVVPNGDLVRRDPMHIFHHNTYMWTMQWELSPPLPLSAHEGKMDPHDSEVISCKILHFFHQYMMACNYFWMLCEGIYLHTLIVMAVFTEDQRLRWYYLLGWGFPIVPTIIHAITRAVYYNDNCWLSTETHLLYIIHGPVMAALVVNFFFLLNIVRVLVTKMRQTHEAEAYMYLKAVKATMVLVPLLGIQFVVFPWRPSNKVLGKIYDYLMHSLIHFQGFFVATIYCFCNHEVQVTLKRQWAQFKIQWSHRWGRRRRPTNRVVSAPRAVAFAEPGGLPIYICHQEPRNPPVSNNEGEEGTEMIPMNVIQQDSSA
T3 sequence (Q9JJ73 whole entry): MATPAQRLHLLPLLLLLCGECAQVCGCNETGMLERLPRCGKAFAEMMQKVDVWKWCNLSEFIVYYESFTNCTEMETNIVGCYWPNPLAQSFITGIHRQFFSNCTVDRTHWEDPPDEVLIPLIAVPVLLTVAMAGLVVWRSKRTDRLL

[15] = molecular target: T1, Amylin receptor AMY3; CALCR/RAMP3; experiment: Displacement of [125I]-labeled rat amylin from human amylin receptor expressed in BHK tkts13 whole cells co-expressing RAMP3 incubated for 60 mins by scintillation proximity assay; type: cell-based
Rattus norvegicus [16] = experiment: Reduction in food intake in Sprague-Dawley rat at 3 nmol/kg measured 0 to 24 hrs post dose relative to control; type: functional; set-up: scale not given: the % may be the effect or the level left
Rattus norvegicus [17] = experiment: Reduction in food intake in Sprague-Dawley rat at 3 nmol/kg measured 24 to 48 hrs post dose relative to control; type: functional; set-up: scale not given: the % may be the effect or the level left

| EC50 [1] [nM] | EC50 (Calcitonin receptor [2]) [nM] | EC50 [3] [nM] | EC50 (Calcitonin receptor [4]) [nM] | solubility at 18 h [5] [µM] | solubility at 18 h [6] [µM] | solubility at 18 h [7] [µM] | solubility at 18 h [8] [µM] | solubility at 18 h [9] [µM] | solubility at 18 h [10] [µM] | solubility at 18 h [11] [µM] | solubility at 18 h [12] [µM] | IC50 (Calcitonin receptor [13]) [nM] | IC50 [14] [nM] | IC50 [15] [nM] | SMILES | Activity (Rattus norvegicus [16]) [%] | Activity (Rattus norvegicus [17]) [%] |
| --- | --- | --- | --- | --- | --- | --- | --- | --- | --- | --- | --- | --- | --- | --- | --- | --- | --- |
| 0.032 | 0.019 | 0.047 | 0.022 | ≥ 200 | ≥ 200 | ≥ 200 | ≥ 200 | ≥ 200 | ≥ 200 | ≥ 200 | ≥ 200 | 0.077 | 0.684 | – | CC(=O)N[C@@H](C)C(=O)N[C@@H](CO)C(=O)N[C@@H](CCC(=O)O)C(=O)N[C@@H](CC(C)C)C(=O)N[C@@H](CO)C(=O)N[C@H](C(=O)N[C@@H](C)C(=O)N[C@@H](C)C(=O)N[C@@H](CC(C)C)C(=O)NCC(=O)N[C@@H](CCCNC(=N)N)C(=O)N[C@@H](CC(C)C)C(=O)N[C@@H](CO)C(=O)N[C@@H](C)C(=O)N[C@@H](CCC(=O)O)C(=O)N[C@@H](CC(C)C)C(=O)N[C@@H](Cc1cnc[nH]1)C(=O)N[C@@H](CCCCNC(=O)CC[C@H](NC(=O)CCCCCCCCCCCCCCCCCCC(=O)O)C(=O)O)C(=O)N[C@@H](CC(C)C)C(=O)N[C@@H](C)C(=O)N[C@H](C(=O)N[C@@H](CC(C)C)C(=O)N1CCC[C@H]1C(=O)N[C@@H](CCCNC(=N)N)C(=O)N[C@H](C(=O)N[C@@H](CCC(=O)O)C(=O)N[C@H](C(=O)NCC(=O)N[C@@H](CO)C(=O)NCC(=O)N[C@@H](CO)C(=O)N1CCC[C@H]1C(N)=O)[C@@H](C)O)[C@@H](C)O)[C@@H](C)O)[C@@H](C)O (Ac-ASELSTAALGRLSAELHK([γGlu-C20 diacid])LATLPRTETGSGSP-NH2) | – | – |
| 0.017 | 0.016 | 0.143 | 0.108 | ≥ 200 | – | – | – | – | ≥ 200 | ≥ 200 | ≥ 200 | 0.1 | 0.046 | 3.17 | CC(C)C[C@H](NC(=O)[C@H](CO)NC(=O)[C@H](C)NC(=O)[C@@H](NC(=O)[C@H](CO)NC(=O)[C@H](CC(C)C)NC(=O)[C@H](CCC(=O)O)NC(=O)[C@H](CO)NC(=O)[C@H](C)NC(=O)CC[C@H](NC(=O)CCCCCCCCCCCCCCCCCCC(=O)O)C(=O)O)[C@@H](C)O)C(=O)NCC(=O)N[C@@H](CCCNC(=N)N)C(=O)N[C@@H](CC(C)C)C(=O)N[C@@H](CO)C(=O)N[C@@H](C)C(=O)N[C@@H](CCC(=O)O)C(=O)N[C@@H](CC(C)C)C(=O)N[C@@H](Cc1cnc[nH]1)C(=O)N[C@@H](CCC(=O)O)C(=O)N[C@@H](CC(C)C)C(=O)N[C@@H](CO)C(=O)N[C@H](C(=O)N[C@@H](Cc1ccc(O)cc1)C(=O)N1CCC[C@H]1C(=O)N[C@@H](CCCNC(=N)N)C(=O)N[C@H](C(=O)N[C@@H](CCC(=O)O)C(=O)N[C@H](C(=O)NCC(=O)N[C@@H](CO)C(=O)NCC(=O)N[C@@H](CO)C(=O)N[C@@H](Cc1ccc(O)cc1)C(N)=O)[C@@H](C)O)[C@@H](C)O)[C@@H](C)O ({C20 diacid-γGlu}-ASELSTASLGRLSAELHELSTYPRTETGSGSY-NH2) | – | – |
| 0.018 | 0.015 | 0.154 | 0.062 | ≥ 200 | – | ≥ 200 | ≥ 200 | ≥ 200 | ≥ 200 | ≥ 200 | ≥ 200 | 0.651 | 0.385 | – | CC(C)C[C@H](NC(=O)CNC(=O)[C@H](CO)NC(=O)[C@H](C)NC(=O)CC[C@H](NC(=O)CCCCCCCCCCCCCCCCCCC(=O)O)C(=O)O)C(=O)N[C@@H](CO)C(=O)N[C@H](C(=O)N[C@@H](C)C(=O)N[C@H](C(=O)N[C@@H](CC(C)C)C(=O)NCC(=O)N[C@@H](CCCCN)C(=O)N[C@@H](CC(C)C)C(=O)N[C@@H](CO)C(=O)N[C@@H](CCC(N)=O)C(=O)N[C@@H](CCC(=O)O)C(=O)N[C@@H](CC(C)C)C(=O)N[C@@H](Cc1cnc[nH]1)C(=O)N[C@@H](CCC(=O)O)C(=O)N[C@@H](CC(C)C)C(=O)N[C@@H](CCC(N)=O)C(=O)N[C@H](C(=O)N[C@@H](Cc1ccc(O)cc1)C(=O)N1CCC[C@H]1C(=O)N1CCC[C@H]1C(=O)N[C@H](C(=O)N[C@@H](CCC(=O)O)C(=O)N[C@H](C(=O)NCC(=O)N[C@@H](CO)C(=O)NCC(=O)N[C@H](C(=O)N[C@@H](Cc1ccc(O)cc1)C(N)=O)[C@@H](C)O)[C@@H](C)O)[C@@H](C)O)[C@@H](C)O)C(C)C)[C@@H](C)O ({C20 diacid-γGlu}-ASGLSTAVLGKLSQELHELQTYPPTETGSGTY-NH2) | 8 | 9 |
| 0.016 | 0.015 | 0.037 | 0.05 | – | – | – | – | – | – | – | – | 0.131 | 1.16 | 3.7 | CC(C)C[C@H](NC(=O)[C@H](CCCNC(=N)N)NC(=O)CNC(=O)[C@H](CC(C)C)NC(=O)[C@@H](NC(=O)[C@H](C)NC(=O)[C@@H](NC(=O)[C@H](CO)NC(=O)[C@H](CC(C)C)NC(=O)[C@H](CCC(N)=O)NC(=O)[C@H](CO)NC(=O)[C@H](C)NC(=O)CC[C@H](NC(=O)CCCCCCCCCCCCCCCCCCC(=O)O)C(=O)O)[C@@H](C)O)C(C)C)C(=O)N[C@@H](CO)C(=O)N[C@@H](CCC(N)=O)C(=O)N[C@@H](CCCNC(=N)N)C(=O)N[C@@H](CC(C)C)C(=O)N[C@@H](Cc1cnc[nH]1)C(=O)N[C@@H](CCCNC(=N)N)C(=O)N[C@@H](CC(C)C)C(=O)N[C@@H](CCC(N)=O)C(=O)N[C@H](C(=O)N[C@@H](Cc1ccc(O)cc1)C(=O)N1CCC[C@H]1C(=O)N[C@@H](CCCNC(=N)N)C(=O)N[C@H](C(=O)N[C@@H](CCC(N)=O)C(=O)N[C@H](C(=O)NCC(=O)N[C@@H](CO)C(=O)N[C@@H](CCC(N)=O)C(=O)N[C@H](C(=O)N[C@@H](Cc1ccc(O)cc1)C(N)=O)[C@@H](C)O)[C@@H](C)O)[C@@H](C)O)[C@@H](C)O ({C20 diacid-γGlu}-ASQLSTAVLGRLSQRLHRLQTYPRTQTGSQTY-NH2) | – | – |
